“Also recorded” adds a separate entry of the source. Where a SMILES comes first, the peptide text is derived from it. Bridges are numbered along the chain shown (N, C = ends). Where no end group is shown, it is not given here. [ ]: non-standard residue; d: D form. Cha = N[C@@H](CC1CCCCC1)C(=O)O
What was measured:
[1] = tested on: cultured vascular smooth muscle cells (VSMC) derived from the aortas of rats; assay: cGMP producing activity in cultured VSMC (cGMP radioimmunoassay); format: cell-based, rat; conditions: for cGMP producing activity (% increase for 1 μm): specific activity compared to 1 μm α-hANP (2000 fmol/400000 cells) = 100, peptide at 1 μm; for cGMP producing activity (in words): comparison with CNP-22 or α-hANP
Experimental: 1-1: Measurement of CGMP Producing Activity
The above-mentioned activity of compounds synthesized according to the present invention was measured by the methods of Hirata et al. (Biochem. Biophys. Res. Commun., 128, 538, 1985) and Scarborough et al. (J. Biol. Chem., 261, 12960, 1986). The cells used were cultured vascular smooth muscle cells (hereunder abbreviated as VSMC) derived from the aortas of rats. From 10^-9 to 10^-6 M of α-hANP or a 20 peptide of interest was incubated together with VSMC and the amount cGMP produced was measured by cGMP radioimmunoassay. Percent maximum reactivity for each peptide, with the value of maximum reactivity for α-hANP being taken as 100%, was used as an indicator of activity.

[2] = tested on: cultured vascular smooth muscle cells (VSMC) derived from the aortas of rats; assay: Cell growth suppressing activity: [3H] thymidine uptake (DNA synthesis inhibition) in VSMC; format: cell-based, rat; conditions: for % Inhibition of 3H-thymidine uptake: 0.1 μm of each peptide, BSMC line stimulated with PDGF (20 ng/ml)
Experimental: 1-2: Measurement of Cell Growth Suppressing Activity
Cell growth suppressing activity was evaluated in accordance with the method of Kariya et al. (Atherosclerosis, 80, 143-147, 1990) by measuring the uptake of [^3 H] thymidine into cells as an indicator of percent DNA synthesis inhibition using the above-identified VSMC. Cells tuned to a stationary phase were incubated at 37° C. for 14 h with each sample added in the presence of 1% serum or 20 ng/ml of PDGF (platelet derived growth factor). Then, following the addition of 37 kBq/ml of [^3 H] thymidine, the incubation was continued for another 4 h and the radioactivity of [^3 H] thymidine incorporated into the cells was measured. The values of measurement were such that the uptake of [^3 H] thymidine for the case where only 1% serum or PDGF was added in the absence of peptide was taken as 100%, with the percent suppression due to the peptide addition being accordingly calculated.

Compound | cGMP producing activity (% increase for 1 μm) [1] | cGMP producing activity (in words) ([1]; rat VSMC) | further results
pCNP-53: porcine CNP-53, CNP-22 with 31 amino acid residues attached to the N-terminus (DLRVDTKSRAAWARLLHEHPNARKYKGGNKKGLSKGCFGLKLDRIGSMSGLGC; disulfide 37-53 (inferred); ends not checked; UniProt P18104 74-126, looked up) [reference compound] | 524% |  | 
CC[C@H](C)[C@@H]1NC(=O)[C@H](CCCNC(=N)N)NC(=O)[C@H](CC(=O)O)NC(=O)[C@H](CC(C)C)NC(=O)[C@H](CCCNC(=N)N)NC(=O)CNC(=O)CNC(=O)[C@H](Cc2ccccc2)NC(=O)[C@@H](NC(=O)CNC(=O)[C@H](CCCCN)NC(=O)[C@H](CO)NC(=O)[C@H](CC(C)C)NC(=O)CN)CSSC[C@@H](C(=O)O)NC(=O)CNC(=O)[C@H](CC(C)C)NC(=O)CNC(=O)[C@H](CO)NC(=O)[C@H](CCSC)NC(=O)[C@H](CO)NC(=O)CNC1=O [Compound 13] (H-GLSKGCFGGRLDRIGSMSGLGC-OH; disulfide 6-22) | 58% |  | 
CC[C@H](C)[C@H](NC(=O)[C@H](CCCNC(=N)N)NC(=O)[C@H](CC(=O)O)NC(=O)[C@H](CC(C)C)NC(=O)[C@H](CCCCN)NC(=O)[C@H](CC(C)C)NC(=O)CNC(=O)[C@H](Cc1ccccc1)NC(=O)[C@H](CSC)NC(=O)CNC(=O)[C@H](CCCCN)NC(=O)[C@H](CO)NC(=O)[C@H](CC(C)C)NC(=O)CN)C(=O)NCC(=O)N[C@@H](CO)C(=O)N[C@@H](CCSC)C(=O)N[C@@H](CO)C(=O)NCC(=O)N[C@@H](CC(C)C)C(=O)NCC(=O)N[C@@H](CSC)C(=O)O [Compound 19, H-Gly-Leu-Ser-Lys-Gly-Cys(Me)-Phe-Gly-Leu-Lys-Leu-Asp-Arg-Ile-Gly-Ser-Met- Ser-Gly-Leu-Gly-Cys(Me)-OH] | 38% | hardly reduced the cGMP producing activity | 
hCNP-53: human CNP-53, CNP-22 with 31 amino acid residues attached to the N-terminus (DLRVDTKSRAAWARLLQEHPNARKYKGANKKGLSKGCFGLKLDRIGSMSGLGC; disulfide 37-53 (inferred); ends not checked; UniProt P23582 74-126, looked up) [reference compound] | 458% |  | % Inhibition of 3H-thymidine uptake [2]: 71%; suppression of DNA synthesis of rat VSMC (in words) ([2]; FIGS. 2, 3 and 4): suppress the DNA synthesis of rat VSMC in a dose-dependent manner; intensity of DNA synthesis / cell growth suppressing action relative to α-hANP ([2]; rat VSMC, compared with α-hANP): 10 times
CC[C@H](C)[C@@H]1NC(=O)[C@H](CCCNC(=N)N)NC(=O)[C@H](CC(=O)O)NC(=O)[C@H](CCSC)NC(=O)[C@H](CCCNC(=N)N)NC(=O)[C@H](CC(C)C)NC(=O)CNC(=O)[C@H](Cc2ccccc2)NC(=O)[C@@H](NC(=O)CNC(=O)[C@H](CCCCN)NC(=O)[C@H](CO)NC(=O)[C@H](CC(C)C)NC(=O)CN)CSSC[C@@H](C(=O)O)NC(=O)CNC(=O)[C@H](CC(C)C)NC(=O)CNC(=O)[C@H](CO)NC(=O)[C@H](CCSC)NC(=O)[C@H](CO)NC(=O)CNC1=O [Compound 12] (H-GLSKGCFGLRMDRIGSMSGLGC-OH; disulfide 6-22) | 273% |  | 
CC[C@H](C)[C@@H]1NC(=O)[C@H](CCCNC(=N)N)NC(=O)[C@H](CC(=O)O)NC(=O)[C@H](CCSC)NC(=O)[C@H](CCCNC(=N)N)NC(=O)CNC(=O)CNC(=O)[C@H](Cc2ccccc2)NC(=O)[C@@H](NC(=O)CNC(=O)[C@H](CCCCN)NC(=O)[C@H](CO)NC(=O)[C@H](CC(C)C)NC(=O)CN)CSSC[C@@H](C(=O)O)NC(=O)CNC(=O)[C@H](CC(C)C)NC(=O)CNC(=O)[C@H](CO)NC(=O)[C@H](CCSC)NC(=O)[C@H](CO)NC(=O)CNC1=O [Compound 14] (H-GLSKGCFGGRMDRIGSMSGLGC-OH; disulfide 6-22) | 23% | marked drop in activity | % Inhibition of 3H-thymidine uptake [2]: 17%
CC[C@H](C)[C@@H]1NC(=O)[C@H](CCCNC(=N)N)NC(=O)[C@H](CC(=O)O)NC(=O)[C@H](CC(C)C)NC(=O)[C@H](CCCCN)NC(=O)CNC(=O)CNC(=O)[C@H](Cc2ccccc2)NC(=O)[C@@H](NC(=O)CNC(=O)[C@H](CCCCN)NC(=O)[C@H](CO)NC(=O)[C@H](CC(C)C)NC(=O)CN)CSSC[C@@H](C(=O)O)NC(=O)CNC(=O)[C@H](CC(C)C)NC(=O)CNC(=O)[C@H](CO)NC(=O)[C@H](CCSC)NC(=O)[C@H](CO)NC(=O)CNC1=O [Compound 6] (H-GLSKGCFGGKLDRIGSMSGLGC-OH; disulfide 6-22) | 344% | lower activity than CNP-22 (but higher than that of α-hANP); also recorded: lower in cGMP producing activity than the other one- and two-residue substituted derivatives | % Inhibition of 3H-thymidine uptake [2]: 49%
CC[C@H](C)[C@@H]1NC(=O)[C@H](CCCNC(=N)N)NC(=O)[C@H](CC(=O)O)NC(=O)[C@H](CC(C)C)NC(=O)[C@H](CCCCN)NC(=O)[C@H](CC(C)C)NC(=O)CNC(=O)[C@H](CC2CCCCC2)NC(=O)[C@@H](N)CSSC[C@@H](C(=O)N[C@@H](CC(N)=O)C(=O)N[C@@H](CO)C(=O)N[C@@H](Cc2ccccc2)C(=O)N[C@@H](CCCNC(=N)N)C(=O)N[C@@H](Cc2ccc(O)cc2)C(=O)O)NC(=O)CNC(=O)[C@H](CC(C)C)NC(=O)CNC(=O)[C@H](CO)NC(=O)[C@H](CCC(N)=O)NC(=O)[C@H](C)NC(=O)CNC1=O [Compound 27] (H-C[Cha]GLKLDRIGAQSGLGCNSFRY-OH; disulfide 1-17) | 523% |  | cGMP producing activity relative to α-hANP ([1]; rat VSMC, times as high activity as α-hANP): 4-6 times
CC[C@H](C)[C@@H]1NC(=O)[C@H](CCCNC(=N)N)NC(=O)[C@H](CC(=O)O)NC(=O)[C@H](CCSC)NC(=O)[C@H](CCCCN)NC(=O)CNC(=O)CNC(=O)[C@H](Cc2ccccc2)NC(=O)[C@@H](NC(=O)CNC(=O)[C@H](CCCCN)NC(=O)[C@H](CO)NC(=O)[C@H](CC(C)C)NC(=O)CN)CSSC[C@@H](C(=O)O)NC(=O)CNC(=O)[C@H](CC(C)C)NC(=O)CNC(=O)[C@H](CO)NC(=O)[C@H](CCSC)NC(=O)[C@H](CO)NC(=O)CNC1=O [Compound 11] (H-GLSKGCFGGKMDRIGSMSGLGC-OH; disulfide 6-22) | 71% | particularly marked; also recorded: lower in cGMP producing activity than the other one- and two-residue substituted derivatives | 
CC[C@H](C)[C@@H]1NC(=O)[C@H](CCCNC(=N)N)NC(=O)[C@H](CC(=O)O)NC(=O)[C@H](CC(C)C)NC(=O)[C@H](CCCCN)NC(=O)[C@H](CC(C)C)NC(=O)CNC(=O)[C@H](Cc2ccccc2)NC(=O)[C@@H](NC(=O)CNC(=O)[C@H](CCCCN)NC(=O)[C@H](CO)NC(=O)[C@H](CC(C)C)NC(=O)CN)CSSC[C@@H](C(=O)N[C@@H](CC(N)=O)C(=O)N[C@@H](CO)C(=O)N[C@@H](Cc2ccccc2)C(=O)N[C@@H](CCCNC(=N)N)C(=O)N[C@@H](Cc2ccc(O)cc2)C(=O)O)NC(=O)CNC(=O)[C@H](CC(C)C)NC(=O)CNC(=O)[C@H](CO)NC(=O)[C@H](CCSC)NC(=O)[C@H](CO)NC(=O)CNC1=O [Compound 3] | 667% | strong cGMP producing activity at a comparable level to that exhibited by CNP-22 | 
CC[C@H](C)[C@@H]1NC(=O)[C@H](CCCNC(=N)N)NC(=O)[C@H](CC(=O)O)NC(=O)[C@H](CC(C)C)NC(=O)[C@H](CCCCN)NC(=O)[C@H](CC(C)C)NC(=O)CNC(=O)[C@H](Cc2ccccc2)NC(=O)[C@@H](NC(=O)[C@H](CO)NC(=O)[C@H](CO)NC(=O)[C@H](CCCNC(=N)N)NC(=O)[C@H](CCCNC(=N)N)NC(=O)[C@H](CC(C)C)NC(=O)[C@@H](N)CO)CSSC[C@@H](C(=O)O)NC(=O)CNC(=O)[C@H](CC(C)C)NC(=O)CNC(=O)[C@H](CO)NC(=O)[C@H](CCSC)NC(=O)[C@H](CO)NC(=O)CNC1=O [Compound 4] (H-SLRRSSCFGLKLDRIGSMSGLGC-OH; disulfide 7-23) | 663% | strong cGMP producing activity at a comparable level to that exhibited by CNP-22 | 
GLSKGCpC1FGLKLDRIGSMSGLGC [Compound 16] | 688% | stronger activity than CNP-22 | 
CC[C@H](C)[C@@H]1NC(=O)[C@H](CCCNC(=N)N)NC(=O)[C@H](CC(=O)O)NC(=O)[C@H](CCSC)NC(=O)[C@H](CCCNC(=N)N)NC(=O)CNC(=O)CNC(=O)[C@H](Cc2ccccc2)NC(=O)[C@@H](NC(=O)[C@H](CO)NC(=O)[C@H](CO)NC(=O)[C@H](CCCNC(=N)N)NC(=O)[C@H](CCCNC(=N)N)NC(=O)[C@H](CC(C)C)NC(=O)[C@@H](N)CO)CSSC[C@@H](C(=O)O)NC(=O)CNC(=O)[C@H](CC(C)C)NC(=O)CNC(=O)[C@H](CO)NC(=O)[C@H](CCC(N)=O)NC(=O)[C@H](C)NC(=O)CNC1=O [Compound 1] | 62% | only a weak cGMP producing activity at a level comparable to α-hANP | 
